Series [1] can be described thus: Acute toxicity in ICR mouse assessed as body weight loss at 1500 mg/kg, po administered daily for 7 days. In kind it is organism-based. To be noted: in vivo, 168 h, time 7 day.
Series [2] is described as follows: Apparent permeability in human Caco-2 cells incubated for 90 min by LC-MS/MS analysis. The class given is ADME, cell-based. On the technique in general: Passage across Caco-2 layers is used to estimate intestinal permeability.
In series [3] the test system is Mus musculus. Nature of the series: Anti-inflammatory activity in DSS-induced ulcerative colitis male C57BL/6 mouse model assessed as reduction in IL-1 beta expression in serum administered via gavage for 10 days by ELISA. The class given is functional, organism-based. To be noted: dose 15-60 mg/kg, time 10.0 day.
In series [4] the target is T1, Myeloblastin (Mus musculus) (UniProt Q61096).
T1 sequence (whole entry): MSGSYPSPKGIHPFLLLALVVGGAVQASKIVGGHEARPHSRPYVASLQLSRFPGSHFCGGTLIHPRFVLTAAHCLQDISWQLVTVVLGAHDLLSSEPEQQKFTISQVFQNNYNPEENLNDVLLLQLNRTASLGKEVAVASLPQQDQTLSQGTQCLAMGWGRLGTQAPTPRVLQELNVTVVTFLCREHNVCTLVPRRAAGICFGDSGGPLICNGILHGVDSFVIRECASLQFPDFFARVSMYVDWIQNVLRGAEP
Put plainly: Induction of proteinase 3 degradation in C57BL/6 mouse bone marrow cells assessed as residual activity at 10 uM incubated for 48 hrs by Western blot analysis relative to control. In kind it is cell-based. The note with it: Bone marrow cell. Background: Immunoblotting shows a protein as a band on a membrane.

Series [5] deals with T2, Cathepsin G (Mus musculus) (UniProt P28293).
T2 sequence (whole entry): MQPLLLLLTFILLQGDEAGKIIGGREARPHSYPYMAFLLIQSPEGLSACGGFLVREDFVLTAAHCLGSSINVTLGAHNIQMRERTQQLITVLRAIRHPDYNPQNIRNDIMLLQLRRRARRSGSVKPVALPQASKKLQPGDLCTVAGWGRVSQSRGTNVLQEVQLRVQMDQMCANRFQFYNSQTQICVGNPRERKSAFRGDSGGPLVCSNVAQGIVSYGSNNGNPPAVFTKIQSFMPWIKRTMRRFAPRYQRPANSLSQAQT
Put plainly: In vivo inhibition of Cathepsin G in C57BL/6 mouse assessed as reduction in cathepsin G activity in blood administered orally once daily for 6 days by fluorescence based microplate reader. The class given is functional, organism-based. To be noted: dose 5-30 mg/kg, route po, time 6.0 day.

The target in series [6] is T2, Cathepsin G (Mus musculus). Put plainly: In vivo inhibition of Cathepsin G in C57BL/6 mouse assessed as reduction in cathepsin G activity in bone marrow administered orally once daily for 6 days by fluorescence based microplate reader. In kind it is functional, organism-based. The note with it: dose 5-30 mg/kg, route po, time 6.0 day.
The test system of series [7] is Mus musculus. Nature of the series: Anti-inflammatory activity in DSS-induced ulcerative colitis male C57BL/6 mouse model assessed as increase in IL-10 expression in colon administered via gavage for 10 days by ELISA. The class given is functional, organism-based. The note with it: dose 15-60 mg/kg, time 10.0 day.
Series [8] deals with T1, Myeloblastin (Mus musculus). Put plainly: In vivo inhibition of proteinase 3 in C57BL/6 mouse assessed as reduction in proteinase 3 activity in bone marrow administered orally once daily for 6 days by fluorescence based microplate reader. The class given is functional, organism-based. To be noted: dose 5-30 mg/kg, route po, time 6.0 day.
The target in series [9] is T3, Dipeptidyl peptidase 1 (Mus musculus) (UniProt P97821).
T3 sequence (whole entry): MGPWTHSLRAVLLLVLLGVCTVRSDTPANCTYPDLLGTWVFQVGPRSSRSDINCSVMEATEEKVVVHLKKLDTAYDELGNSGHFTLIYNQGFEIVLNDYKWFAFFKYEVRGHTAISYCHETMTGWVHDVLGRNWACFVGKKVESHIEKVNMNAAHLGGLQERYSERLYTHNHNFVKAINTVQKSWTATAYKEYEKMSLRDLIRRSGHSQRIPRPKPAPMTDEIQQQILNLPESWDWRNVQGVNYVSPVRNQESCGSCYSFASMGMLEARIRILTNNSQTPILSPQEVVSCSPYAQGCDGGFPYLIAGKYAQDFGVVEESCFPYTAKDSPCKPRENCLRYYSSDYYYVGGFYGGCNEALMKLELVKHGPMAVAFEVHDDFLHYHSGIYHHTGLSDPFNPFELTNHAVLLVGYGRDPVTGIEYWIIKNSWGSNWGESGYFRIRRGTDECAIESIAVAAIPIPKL
Put plainly: In vivo inhibition of Cathepsin C in C57BL/6 mouse assessed as reduction in cathepsin C activity in bone marrow at 30 mg/kg, po administered once daily for 6 days by fluorescence based microplate reader relative to control. The class given is functional, organism-based. To be noted: time 6.0 day.

Series [10] has as its target T1, Myeloblastin (Mus musculus). Put plainly: Induction of proteinase 3 degradation in C57BL/6 mouse bone marrow cells assessed as remaining activity at 10 uM incubated for 12 hrs by Western blot analysis relative to control. To be noted: Bone marrow cell. The class given is cell-based.
In series [11] the test system is Mus musculus. Put plainly: Anti-inflammatory activity in DSS-induced ulcerative colitis male C57BL/6 mouse model assessed as reduction in inflammatory cell infiltration in colon at 60 mg/kg administered via gavage for 10 days by H and E staining based analysis. The class given is functional, organism-based. The note with it: time 10.0 day.
Series [12] concerns the target T1, Myeloblastin (Mus musculus). Nature of the series: In vivo inhibition of proteinase 3 in C57BL/6 mouse assessed as reduction in proteinase 3 activity in blood at 30 mg/kg, po administered once daily for 6 days by fluorescence based microplate reader relative to control. In kind it is functional, organism-based. The note with it: time 6.0 day.
A short description of series [13]: Cmax in male Sprague-Dawley rat at 2 mg/kg, iv measured at 5 to 1440 mins by LC-MS/MS analysis. The note with it: in vivo, time 5-1440 min. The class given is ADME, organism-based.
The subject of series [14] is Mus musculus. Put plainly: Anti-inflammatory activity in DSS-induced ulcerative colitis male C57BL/6 mouse model assessed as reduction in TNF-alpha expression in serum administered via gavage for 10 days by ELISA. In kind it is functional, organism-based. To be noted: dose 15-60 mg/kg, time 10.0 day.
For series [15], the target named is T3, Dipeptidyl peptidase 1 (Mus musculus). Put plainly: In vivo inhibition of Cathepsin C in C57BL/6 mouse assessed as reduction in cathepsin C activity in blood at 15 mg/kg, po administered once daily for 6 days by fluorescence based microplate reader relative to control. In kind it is functional, organism-based. To be noted: time 6.0 day.
Series [16] deals with Mus musculus. Put plainly: Anti-inflammatory activity in DSS-induced ulcerative colitis male C57BL/6 mouse model assessed as reduction in Cathepsin C level in serum at 15 to 30 mg/kg administered via gavage for 10 days. In kind it is functional, organism-based. The note with it: dose 15-30 mg/kg, time 10.0 day.
Series [17] deals with Mus musculus. Put plainly: Anti-inflammatory activity in DSS-induced ulcerative colitis C57BL/6 mouse model assessed as effect on inflammatory factors at 60 mg/kg, administered twice daily. In kind it is functional, organism-based.
Series [18] deals with RAW264.7. Put plainly: Anti-inflammatory activity in LPS-stimulated mouse RAW264.7 cells assessed as reduction in IL-1 beta production incubated for 24 hrs by ELISA. The class given is functional, cell-based. To be noted: dose 0.62-5 µM. For orientation: In an ELISA, binding on a coated surface is turned into a signal by an enzyme label.
Series [19] has as its target T4, Neutrophil elastase (Homo sapiens) (UniProt P08246).
T4 sequence (whole entry): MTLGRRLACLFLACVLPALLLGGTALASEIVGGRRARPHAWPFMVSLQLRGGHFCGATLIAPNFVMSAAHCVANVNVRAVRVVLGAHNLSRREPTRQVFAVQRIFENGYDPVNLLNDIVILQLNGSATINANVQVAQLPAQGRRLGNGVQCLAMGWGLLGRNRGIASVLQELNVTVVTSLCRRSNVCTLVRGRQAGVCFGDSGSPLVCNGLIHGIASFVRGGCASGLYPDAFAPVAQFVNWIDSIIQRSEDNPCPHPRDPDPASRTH
Put plainly: Inhibition of neutrophil elastase in human U-937 cells using N-MeSuc-Ala-Pro-Val-pNA as substrate at 10 uM incubated for 5 days by […] based microplate reader analysis relative to control. The class given is cell-based. The note with it: time 5.0 day.

In series [20] the test system is Mus musculus. Put plainly: Anti-inflammatory activity in DSS-induced ulcerative colitis male C57BL/6 mouse model assessed as reduction in neutrophil elastase level in colon at 15 to 30 mg/kg administered via gavage for 10 days. In kind it is functional, organism-based. To be noted: dose 15-30 mg/kg, time 10.0 day.

Active and inactive are the calls of the source. No cut-off for these calls is given here.

For the compound `O=C1Nc2c(cccc2-c2ccc(NC3CCOCC3)cc2)/C1=C/c1ccnc2ccccc12`, the Activity result in series [1] was “Non-toxic”; in series [3], “Dose-dependent-effect; Significant Reduction Observed In High Dose Group”; in series [4], 8.71%; in [7], “Dose-dependent-effect; Significant Increase Observed In High Dose Group”; in series [10], 75%; in series [14], “Dose-dependent-effect; Significant Reduction Observed In High Dose Group”. In addition, in series [18], the Activity result was “Dose-dependent-effect”. The apparent permeability coefficient (Papp) at 1.5 h in series [2] stood at 3.2 ×10⁻⁶ cm/s. The inhibition result in [5] was “Dose-dependent-effect”; in series [6] it was “Dose-dependent-effect”; in series [8], “Dose-dependent-effect”; in series [9] it was 36.5%; in series [12] it was 44.8%; in series [15], less than 50%. The compound further yielded an inhibition in [19] of 24.5%. Moreover, the result in series [11] and in [17] was Active. In [13], this compound returned a peak concentration (Cmax) of 309 ng/mL. The result in [16] and in series [20] was inactive.

Broadly, the Papp is the rate of passage across a membrane or cell layer, normalised by area and donor concentration. What is called inhibition is the drop in the measured response relative to a control, in per cent. As a reminder, the Cmax is the highest concentration seen after dosing.

The values are drawn from ChEMBL document CHEMBL6092168, “Identification of novel indolinone derivatives as CTSC inhibitors to treat inflammatory bowel disease by modulating inflammatory factors” (Eur J Med Chem, 2024).
